Test results from patent US6344505B1, “Mono- and bis-benzotriazolyldihydroxybiaryl UV absorbers” (Cytec Industries Inc., priority 1999, dated 2002).
Where “and” joins values, the source holds several entries; their conditions need not be identical. Equal values may be shown once. Read-outs that look alike come from different tables or passages of the source. Each block holds one compound with its values, some of them ahead of it.

What was measured:
[1] = Solubility in xylene (compatibility); type: physicochemical
[2] = UV absorption in toluene (λmax, molar absorptivity); type: physicochemical
From the text: The high molar absorptivity of 3,3′-bis-(2H-benzotriazol-2-yl)-5,5′-di-tert-octyl-1,1′-biphenyl-2,2′-diol, ε310=25,600 (toluene) and ε353=28,300 (toluene) are indicative of high ultraviolet absorption efficiency of the benzotriazole stabilizers of the present invention.
The bis-benzotriazoles of the invention absorb UV light at longer wavelengths than their non-dimeric or alkylene bridged dimeric counterparts. For example, the dimeric 3,3′-bis-(2H-benzotriazol-2-yl)-5,5′-di-tert-octyl-1,1′-biphenyl-2,2′-diol of the present invention absorbs at λmax(toluene)=353 nm. In contrast, the monomeric 2-(2H-benzotriazol-2-yl)-4-tert-octyl-phenol absorbs at a much lower wavelength, at λmax(toluene)=346 nm. Furthermore, the methylene bridged 2,2′-methylenedi{6-(2-benzotriazolyl)-4-tert-octyl-phenol} has an absorption at λmax(toluene)=350 nm, also substantially shorter than that of the bis-benzotriazoles of the present invention.
PRODUCT A: 3,3′-bis-(2H-benzotriazol-2-yl)-5,5′-di-tert-octyl-1,1′-biphenyl-2,2′-diol (COMPOUND 1) (0.033 g), characterized by ^1H nuclear magnetic resonance spectroscopy (NMR), ultraviolet and mass spectroscopy; λmax(toluene): 310 and 353 nm; ε310=25,600; ε353=28,300; high resolution electron impact mass spectroscopy (HREI/MS): m/e=Found: 644.3815; Calculated: 644.3839; and
PRODUCT B: 3-(2H-Benzotriazol-2-yl)-5,5′-di-tert-octyl-1,1′-biphenyl-2,2′-diol (0.144 g), characterized by ^1H nuclear magnetic resonance spectroscopy (NMR), ultraviolet spectroscopy, and mass spectroscopy; λmax(toluene): 332 nm; ε332=15,400; high resolution electron impact mass spectroscopy (HREI/MS): m/e=Found: 527.3498; Calculated: 527.3512.

[3] = Florida weathering (5° south, direct, ASTM G7-89) of acrylic melamine coating; conditions: Table 11
Experimental: COMPOUND 1 was formulated in a clear acrylic melamine coatings which were applied to aluminum panels for accelerated weathering testing as follows. COMPOUND 1 (2% based on total resin solids) was pre-dissolved in xylenes, alone and in combination with Sanduvor® 3058 HALS (0.5% or 1.0% based on total resin solids), and added to the clear acrylic melamine formulation given in Table 6. A formulation containing Tinuvin® 328 (2% based on total resin solids) was also prepared for comparison purposes. Unpolished aluminum panels, measuring 4″×12″, obtained from ACT Laboratories, Inc. (Hillsdale, Mich.) were coated with the clear coat formulation of Table 6. The draw-down technique, using WC-52 Wire-Cators™ (Leneta co., Ho-Ho-Kus, N.J.), was used to apply the clear coats to the panels. Coatings 2 mil thick were obtained. The clear coats were allowed to flash for 10 min. at ambient temperature and cured for 30 min. at 135° C.
The coatings of Example 13 were weathered in Miami, Fla. The testing was performed in accordance with ASTM G7-89 at a tilt angle of […] from the horizontal facing south with specimens mounted unbacked.

[4] = Thermal Gravimetric Analysis (TGA), temperature of 10 wt % loss (volatility); type: physicochemical; conditions: for TGA T-10%: Temperature at which 10% wt. loss is observed during TGA analysis; for TGAT=10% point: temperature at which 10 wt % loss occurs, TGA experiment
From the text: A reliable indication of the volatility of benzotriazole stabilizers is the temperatures at which 10 wt % loss occurs (TGAT=10%).

- TGA T-10% [4]: 380 °C
SMILES: CC(C)(C)CC(C)(C)c1cc(Cc2cc(C(C)(C)CC(C)(C)C)cc(-n3nc4ccccc4n3)c2O)c(O)c(-n2nc3ccccc3n2)c1 [LA-31 ®, 2,2′-Methylenedi [Bis-2-benzotriazolyl)-4-tert-octylphenol]

- solubility in xylene [1]: 2.5 gram/100 ml
- λmax(toluene) [2]: 350 nm
- TGAT=10% point [4]: 370 °C
SMILES: CC(C)(C)CC(C)(C)c1cc(Cc2cc(C(C)(C)CC(C)(C)C)cc(-n3nc4ccccc4n3)c2O)c(O)c(-n2nc3ccccc3n2)c1 [MIXXIM BB/100®, 2,2′-methylenedi{6-(2-benzotriazolyl)-4-tert-octyl-phenol}, reference compound]

- TGA T-10% [4]: 205 °C
SMILES: Cc1ccc(O)c(-n2nc3ccccc3n2)c1 [Tinuvin P ™, 2-(2H-benzotriazol-2-yl)-4-methyl-phenol]

- λmax(toluene) [2]: 346 nm
- TGA T-10% [4]: 245 °C
- TGAT=10% point [4]: 247 °C
SMILES: CC(C)(C)CC(C)(C)c1ccc(O)c(-n2nc3ccccc3n2)c1 [UV-5411, 2-(2H-benzotriazol-2-yl)-4-tert-octyl-phenol]

More lines, now with the values behind:

SMILES: CC(C)(C)CC(C)(C)c1cc(-c2cc(C(C)(C)CC(C)(C)C)cc(-n3nc4ccccc4n3)c2O)c(O)c(-n2nc3ccccc3n2)c1 [COMPOUND 1, 3,3′-bis-(2H-benzotriazol-2-yl)-5,5′-di-tert-octyl-1,1′-biphenyl-2,2′-diol]
- melting point: 209 to 211 °C
- solubility in xylene [1]: 6.0 gram/100 ml
- λmax(toluene) [2]: 310 nm and 353 nm
- molar absorptivity ε310 ([2]; 310 nm, in M-1 cm-1 (unit assumed)): 25,600
- molar absorptivity ε353 ([2]; 353 nm, in M-1 cm-1 (unit assumed)): 28,300
- λmax(toluene) ([2]; listed as 3,3′-bis-(2H-benzotriazol-2-yl)-5,5′-di-tert-octyl-1,1′-biphenyl-2,2′-diol): 353 nm
- efficiency in reducing total color change (delta E) relative to the unstabilized coating [3]: comparable efficiency
- TGA T-10% [4]: 381 °C
- TGAT=10% point [4]: 384 °C

SMILES: CC(C)(C)c1cc(-c2cc(C(C)(C)C)cc(-n3nc4ccccc4n3)c2O)c(O)c(-n2nc3ccccc3n2)c1 [COMPOUND 2, 3,3′-bis-(2H-benzotriazol-2-yl)-5,5′-di-tert-butyl-1,1′-biphenyl-2,2′-diol]
- melting point: 234 °C

SMILES: CC(C)(c1ccccc1)c1cc(-c2cc(C(C)(C)c3ccccc3)cc(-n3nc4ccccc4n3)c2O)c(O)c(-n2nc3ccccc3n2)c1 [COMPOUND 3, 3,3′-bis-(2H-benzotriazol-2-yl)-5,5′-di-cumyl-1,1′-biphenyl-2,2′-diol]
- TGA T-10% [4]: 377 °C

SMILES: Oc1c(-c2cccc(-n3nc4ccccc4n3)c2O)cccc1-n1nc2ccccc2n1 [COMPOUND 5, 3,3′-bis-(2H-benzotriazol-2-yl)-1,1′-biphenyl-2,2′-diol]
- TGA T-10% [4]: 383 °C

SMILES: CC(C)(C)CC(C)(C)c1ccc(O)c(-c2cc(C(C)(C)CC(C)(C)C)cc(-n3nc4ccccc4n3)c2O)c1 [PRODUCT B, 3-(2H-Benzotriazol-2-yl)-5,5′-di-tert-octyl-1,1′-biphenyl-2,2′-diol]
- λmax(toluene) [2]: 332 nm
- molar absorptivity ε332 ([2]; 332 nm): 15,400

SMILES: CCC(C)(C)c1cc(-n2nc3ccccc3n2)c(O)c(C(C)(C)CC)c1 [Tinuvin ® 328, reference compound]
- efficiency in reducing total color change (delta E) relative to the unstabilized coating [3]: comparable efficiency

SMILES: CC(C)(c1ccccc1)c1cc(-n2nc3ccccc3n2)c(O)c(C(C)(C)c2ccccc2)c1 [Tinuvin ®-234, 2-(2H-Benzotriazol-2yl)-4,6-bis (α,α-dimethylbenzyl) phenol]
- TGA T-10% [4]: 312 °C
